Reference: US20240196897A1, “METHOD FOR CONTROLLING DISEASE-TRANSMITTING INSECTS USING CONDENSED HETEROCYCLIC COMPOUND” (SUMITOMO CHEMICAL COMPANY, LIMITED, priority 2021, published 2024)

How the values were obtained:
[1] = system: German cockroaches (Blattella germanica); experiment: Aerosol spray test on adult German cockroaches, moribund and mortal rates; format: in vivo; conditions: aerosol per Formulation Example 2 (0.1 part compound); spray time 1.35 seconds, spray amount about 800 mg, from height 50 cm; ten adults; one day after spraying
Description: (§1) The internal pressure of the container at 20° C. of the aerosols thus fabricated was 0.5 MPa, the spray amount was 3 g/5 seconds, and the representative particle size (XR value) was 14 to 15 μm.
In a plastic container (diameter: 12.4 cm, height: 10.2 cm), ten adult German cockroaches (Blattella germanica) (five males and five females each) were released, and the plastic container was placed in the center of the bottom of a cylindrical chamber of 17.2 cm in diameter. From the height of 50 cm, the aerosol containing each compound listed in Table 2 which was fabricated according to the method mentioned in Formulation Example 2 was sprayed with a spray time of 1.35 seconds and a spray amount of about 800 mg. After a lapse of one day from spraying, the number of dead and moribund individuals was examined, and moribund and mortal rates (%) were determined by the equation 1 below. Dead individuals are completely immobile individuals, and moribund individuals are individuals who cannot get up when turned on their backs.
Moribund and mortal rates (%)={(number of dead individuals+number of moribund individuals)/number of tested individuals}×100 (Equation 1)

[2] = system: Argentine worker ants (Linepithema humile); experiment: Aerosol spray test on adult Argentine worker ants, moribund and mortal rates; format: in vivo; conditions: aerosol per Formulation Example 2 (0.1 part compound), from height 60 cm, ten adult workers, seven days after spraying
Description: as §1
In a plastic container (diameter: 10 cm, height: 4.5 cm) lined with a filter paper (diameter: 8.2 cm), ten adult Argentine worker ants (Linepithema humile) were released, and the plastic container was placed in the center of the bottom of a cylindrical chamber of 17.2 cm in diameter. From the height of 60 cm, the aerosol containing each compound listed in Table 2 which was fabricated according to the method mentioned in Formulation Example 2 was sprayed with a spray time of 0.34 second or 0.68 second and a spray amount of about 400 mg or 200 mg. After a lapse of seven days from spraying, the number of dead and moribund individuals was examined, and moribund and mortal rates (%) were determined by the equation 2 below. Dead individuals are completely immobile individuals, and moribund individuals are individuals who cannot get up when turned on their backs.
Moribund and mortal rates (%)={(number of dead individuals+number of moribund individuals)/number of tested individuals}×100 (Equation 2)

SMILES | Moribund and mortal rates (%) after one day [1] | Moribund and mortal rates (%) after seven days ([2]; spray amount 200 mg) | Moribund and mortal rates (%) after seven days ([2]; spray amount 400 mg)
CCS(=O)(=O)c1cc(C2CC2)cnc1-c1nc2cc(S(=O)(=O)C(F)(F)F)ccc2o1 [Present compound B] | 100% | 100% | 100%
CCS(=O)(=O)c1cc(C(F)(F)F)cnc1-c1nc2cc([S+]([O-])C(F)(F)F)ccc2o1 (stereo not drawn) [Comparative compound 1] | 30% | 10% | 100%
CCS(=O)(=O)c1cc(C)cnc1-c1nc2cc(S(=O)(=O)C(F)(F)F)ccc2o1 [Comparative compound 4] | 15% | 10% | 100%
CCS(=O)(=O)c1cc(C2CC2)cnc1-c1nc2cc([S+]([O-])C(F)(F)F)ccc2o1 (stereo not drawn) [Present compound A] | 100% | 100% | 100%
CCS(=O)(=O)c1cc(C)cnc1-c1nc2cc([S+]([O-])C(F)(F)F)ccc2o1 (stereo not drawn) [Comparative compound 3] | 30% | 3% | 100%
CCS(=O)(=O)c1cc(C(F)(F)F)cnc1-c1nc2cc(S(=O)(=O)C(F)(F)F)ccc2o1 [Comparative compound 2] | 30% | 13% | 100%
